Measured values from ChEMBL document CHEMBL1201862, “PubChem BioAssay data set” (2004).
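Briefly, cells in 96-well plates were exposed to five compound concentrations for 48 h, and endpoints were estimated by linear interpolation. The concentration for 50% growth inhibition is given as GI50.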 The source made the active and inactive calls. No stated cut-off is given here; in the data, active = GI50 up to about 1.1 µM and inactive = higher.

What was measured:
Test in all cases: NCI anticancer screen, dose series, 48 h
[1] = test system: K562
[2] = test system: U-251
[3] = test system: IGROV-1
[4] = test system: NCI-H226
[5] = test system: SK-MEL-5
[6] = test system: HCT-15
[7] = test system: UACC-62
[8] = test system: NCI-H23
[9] = test system: M14
[10] = test system: OVCAR-4
[11] = test system: HCC 2998
[12] = test system: COLO 205
[13] = test system: LOX IMVI
[14] = test system: NCI-H460
[15] = test system: OVCAR-3
[16] = test system: TK-10
[17] = test system: CAKI-1
[18] = test system: A549
[19] = test system: OVCAR-8
[20] = test system: KM12

| Compound | GI50 [1] | GI50 [2] | GI50 [3] | GI50 [4] | GI50 [5] | GI50 [6] | GI50 [7] | GI50 [8] | GI50 [9] | GI50 [10] | GI50 [11] | GI50 [12] | GI50 [13] | GI50 [14] | GI50 [15] | GI50 [16] | GI50 [17] | GI50 [18] | GI50 [19] | GI50 [20] |
| --- | --- | --- | --- | --- | --- | --- | --- | --- | --- | --- | --- | --- | --- | --- | --- | --- | --- | --- | --- | --- |
| O=c1c(C(c2ccc(C(c3c(O)oc4cc(O)ccc4c3=O)c3c(O)oc4cc(O)ccc4c3=O)cc2)c2c(O)oc3cc(O)ccc3c2=O)c(O)oc2cc(O)ccc12 | > 100 µM (inactive) | > 100 µM (inactive) | > 100 µM (inactive) | > 100 µM (inactive) | 48.6 µM (inactive) | > 100 µM | > 100 µM (inactive) | > 100 µM (inactive) | > 100 µM (inactive) | 93.1 µM (inactive) | > 100 µM (inactive) | 53.3 µM (inactive) | > 100 µM (inactive) | > 100 µM (inactive) | > 100 µM (inactive) | > 100 µM (inactive) | > 100 µM (inactive) | > 100 µM (inactive) | > 100 µM (inactive) |  |
| Nc1cc(-c2ccccc2)nn1-c1nsc2ccccc12 | 40.4 µM (inactive) | 54.2 µM (inactive) | 83.9 µM (inactive) |  | > 100 µM (inactive) | 95.3 µM | > 100 µM (inactive) | > 100 µM (inactive) | > 100 µM (inactive) | > 100 µM (inactive) | > 100 µM (inactive) | > 100 µM (inactive) | 97.5 µM (inactive) | 60.8 µM (inactive) | 94.2 µM (inactive) | > 100 µM (inactive) |  | > 100 µM (inactive) | 92.9 µM (inactive) | > 100 µM (inactive) |
| CCC(=C(C#N)C#N)c1cc(OC)c(OC)c(OC)c1 | > 100 µM (inactive) | > 100 µM (inactive) | > 100 µM (inactive) | > 100 µM (inactive) | > 100 µM (inactive) | > 100 µM | > 100 µM (inactive) | > 100 µM (inactive) | > 100 µM (inactive) | > 100 µM (inactive) | > 100 µM (inactive) | > 100 µM (inactive) | > 100 µM (inactive) | > 100 µM (inactive) | > 100 µM (inactive) | > 100 µM (inactive) | > 100 µM (inactive) | > 100 µM (inactive) | > 100 µM (inactive) | > 100 µM (inactive) |
| O=C(O)CCC(NC(=O)c1ccc(Nc2nc3cc(C(F)(F)F)ccc3nc2-c2ccccc2)cc1)C(=O)O (stereo unspecified) | 34.4 µM (inactive) | 67.1 µM (inactive) | > 100 µM (inactive) | > 100 µM (inactive) | > 100 µM (inactive) | 60.3 µM | > 60.1 µM (inactive) | > 100 µM (inactive) |  | 31.3 µM (inactive) | 66.5 µM (inactive) | > 55.7 µM (inactive) | 44.9 µM (inactive) | 43.3 µM (inactive) | > 100 µM (inactive) |  |  | > 86.1 µM (inactive) | > 100 µM (inactive) | 45.9 µM (inactive) |
| CNC(=O)CN1CC(=O)N(C)C(=O)C1 | > 100 µM (inactive) | > 100 µM (inactive) | > 100 µM (inactive) | > 100 µM (inactive) | > 100 µM (inactive) | > 100 µM | > 100 µM (inactive) | > 100 µM (inactive) | > 100 µM (inactive) | > 100 µM (inactive) | > 100 µM (inactive) | > 100 µM (inactive) | > 100 µM (inactive) |  | > 100 µM (inactive) | > 100 µM (inactive) | > 100 µM (inactive) |  |  | > 100 µM (inactive) |
| COc1cc2c(cc1OC)C(C(c1ccccc1)c1ccccc1)N(C)CC2 (stereo unspecified) | 40.8 µM (inactive) | 61.9 µM (inactive) | 70.6 µM (inactive) | > 92.9 µM (inactive) | 21 µM (inactive) | > 100 µM | > 86.7 µM (inactive) | > 100 µM (inactive) |  | > 94 µM (inactive) | 26.3 µM (inactive) | 16.1 µM (inactive) | > 81.1 µM (inactive) | > 89.1 µM (inactive) | > 84.7 µM (inactive) |  | 0.617 µM (active) | > 100 µM (inactive) | > 100 µM (inactive) | > 100 µM (inactive) |
| CC1(C)Cc2c(C#N)c(N)c3c(c2CO1)C(=O)OC3=O | > 100 µM (inactive) | > 100 µM (inactive) | > 100 µM (inactive) | > 100 µM (inactive) | > 100 µM (inactive) | > 100 µM | > 100 µM (inactive) | > 100 µM (inactive) | > 100 µM (inactive) | > 100 µM (inactive) | > 100 µM (inactive) | > 100 µM (inactive) | > 100 µM (inactive) | > 100 µM (inactive) | > 100 µM (inactive) | > 100 µM (inactive) | > 100 µM (inactive) | > 100 µM (inactive) | > 100 µM (inactive) | > 100 µM (inactive) |
| O=c1[nH]c(=O)n(CCOCP(=O)(O)O)nc1Br |  | > 100 µM (inactive) | > 100 µM (inactive) | > 100 µM (inactive) | > 100 µM (inactive) | > 100 µM |  | > 100 µM (inactive) | > 100 µM (inactive) |  | > 100 µM (inactive) | > 100 µM (inactive) | > 100 µM (inactive) | > 100 µM (inactive) | > 100 µM (inactive) | > 100 µM (inactive) | > 100 µM (inactive) | > 100 µM (inactive) | > 100 µM (inactive) | > 100 µM (inactive) |
